Measured values as given in patent US20180086714A1 (priority 2015, published 2018).

Tests used:
Type in all cases: cell-based
Septoria tritici = assay: Microtest, activity against leaf blotch on wheat; conditions: 405 nm 9 days after inoculation, comparative example
Phytophthora infestans = conditions: 405 nm 7 days after inoculation, comparative example
Leptosphaeria nodorum = assay: Microtest, activity against wheat leaf spots; conditions: 405 nm 9 days after inoculation, comparative example

SMILES | Growth (%) at 8 ppm (Septoria tritici) | Growth (%) at 31 ppm (Phytophthora infestans) | Growth (%) at 2 ppm (Leptosphaeria nodorum)
CC1(C)N=C(c2cnc3ccccc3c2)c2ccccc2C1(C)C | 74% |  | 
CC1(C)N=C(c2cnc3ccccc3c2)c2[nH]ccc2C1(C)C | 53% |  | 
CC1(C)Cc2ccccc2C(c2cnc3ccccc3c2)=N1 [drawing 139] |  | 33% | 
CC1(C)Cc2cc[nH]c2C(c2cnc3ccccc3c2)=N1 [drawing 140] |  | 17% | 
CC1(C)Cc2ccccc2C(c2cnc3ccccc3c2)=N1 [drawing 141] |  |  | 83%
CC1(C)Cc2cc[nH]c2C(c2cnc3ccccc3c2)=N1 [drawing 142] |  |  | 65%
